Experimental data reported in patent publication US20220202739A1, “ENDOCANNABINOID MIMETIC AND ANTI-INFLAMMATORY COMPOUND CONTAINING COMPOSITIONS, METHODS OF PREPARATION AND USES THEREOF” (priority 2019, published 2022).

Assays:
Type in all cases: cell-based, human
Conditions in all cases: pooled keratinocytes, 20 ppm, 24 hr
[1] = system: CERS3; assay: Gene expression custom microarray, pooled keratinocyte line (Example 3): CERS3
Description: (§1) Cell cultures: Received and began culture of pooled keratinocyte line from Promocell (C-12006; Lot #448Z026). Cells were seeded into a 75 cm2 flask and 2 6 well dishes for expansion and exposure per manufacturer's protocol using Keratinocyte Growth Medium (C2011B), Keratinocyte Supplement Mix (C39016) and CaCl (C34005). 2 ml of prepared solution were added to each of the 6 wells and 7 ml was added to the 75 cm2 flask.
(§2) Experimental phase: When the appropriate quantity of cells were grown, they were detached as described above, but at the final step were seeded into each well of one or more 6 well dishes. Each well received 2 ml of the cells suspended in suspension so they were seeded equally. The dishes were returned to the incubator until 85-95% confluency is reached.
(§3) It was at this stage that all wells were rinsed in PBS after aspirating the growth media. The compound(s) to be tested were previously mixed into a suitable solvent (e.g., DMSO or ethanol) that can be diluted to the desired concentration of test compound (10 μl) in the culture wells without exceeding maximum solvent concentrations and adversely effecting cell viability, and mixed with Basal Keratinocyte Media. NOTE: Standard maximum levels of solvent are 0.1% for DMSO and 0.5% for ETOH. The concentration for each tested compound/natural extract is generally listed in the left-hand column of Table 4. For certain compositions (e.g., compositions 15 and 16), other concentrations were used and are noted in the body of Table 4.
(§4) Every 2 wells on the 6 well plate served as a biological replicate for the purposes of RNA isolation and genetic expression evaluations making each 6 well dish an n=3 for the test compound contained in the media. […]
(§5) At the end of the 24 hr time period, the plates were removed from the incubator, the test media aspirated, and the cells rinsed with PBS. […] Allow 1 minute for saturation of the membrane and then centrifuge for 2 minutes to complete the RNA elution. • Quantify the quantity of RNA and store at −20 C° until use (no more than 1 month) […]

[2] = system: KLF4; assay: Gene expression custom microarray, pooled keratinocyte line (Example 3): KLF4
Description: as §1, §2, §3, §4, §5

[3] = system: TLR2; assay: Gene expression custom microarray, pooled keratinocyte line (Example 3): TLR2
Description: as §1, §2, §3, §4, §5

Compound | ↑CERS3 gene expression, fold increase or decrease vs untreated cells [1] [fold] | ↑KLF4 gene expression, fold increase or decrease vs untreated cells [2] [fold] | ↑TLR2 gene expression, fold increase or decrease vs untreated cells [3] [fold]
C=C(C)[C@@H]1CCC(C)=C[C@H]1c1c(O)cc(CCCCC)cc1O [CBD, cannabidiol, reference compound] | 1.7 | 3.5 | 2.8
CCCCCCCCCCCCCCCC(=O)NCCO [N-palmitoylethanolamide] | 2 | 1.7 | −1.3
CC(C)[C@]12O[C@H]1[C@@H]1O[C@]13[C@]1(O[C@H]1C[C@H]1C4=C(CC[C@@]13C)C(=O)OC4)[C@@H]2O [Triptolide] | −1.5 | 1.5 | −2.9
